experiment: Dissociation constant with dimeric 16S rRNA RNA construct B

Kd | SMILES
1810 nM | NC[C@H]1O[C@H](O[C@H]2[C@H](O)[C@@H](O[C@H]3O[C@H](CSCCOCCSSCCOCCSC[C@H]4O[C@H](O[C@@H]5[C@@H](O)[C@H](O[C@H]6O[C@H](CN)[C@@H](O)C[C@H]6N)[C@@H](N)C[C@H]5N)[C@H](O)[C@@H](N)[C@@H]4O)[C@@H](O)[C@H](N)[C@H]3O)[C@H](N)C[C@@H]2N)[C@H](N)C[C@@H]1O [Tobramycin-Tobramycin]
1680 nM | NC[C@H]1O[C@H](O[C@H]2[C@H](O)[C@@H](O[C@H]3O[C@H](CO)[C@@H](O)[C@H](N)[C@H]3O)[C@H](N)C[C@@H]2N)[C@H](N)C[C@@H]1O [TOBRAMYCIN]
280 nM | CN(C)C1=CC2Oc3cc(N(C)C)ccc3C(c3ccc(C(=O)NC[C@@H]4O[C@H](O[C@H]5[C@@H](O)[C@H](O[C@@H]6[C@H](O)[C@H](N)C[C@@H](N)[C@H]6O[C@H]6O[C@@H](CO)[C@@H](O)[C@H](O)[C@@H]6N)O[C@@H]5CO)[C@H](N)[C@H](O)[C@@H]4O)cc3C(=O)O)=C2C=C1 (some centres undefined)
290 nM | NCC1O[C@H](O[C@H]2[C@@H](O)[C@H](O[C@H]3[C@H](O)[C@@H](N)C[C@@H](N)[C@@H]3O[C@H]3O[C@H](CN)[C@@H](O)[C@H](O)[C@H]3N)O[C@@H]2CSCCOCCSSCCOCCSC[C@H]2O[C@H](O[C@@H]3[C@@H](O)[C@H](O[C@H]4O[C@H](CN)[C@@H](O)C[C@H]4N)[C@@H](N)C[C@H]3N)[C@H](O)[C@@H](N)[C@@H]2O)[C@H](N)[C@@H](O)[C@@H]1O (some centres undefined)
20 nM | NCC1O[C@H](O[C@H]2[C@@H](O)[C@H](O[C@H]3[C@H](O)[C@@H](N)C[C@@H](N)[C@@H]3O[C@H]3O[C@H](CN)[C@@H](O)[C@H](O)[C@H]3N)O[C@@H]2CSCCOCCSSCCOCCSC[C@H]2O[C@@H](O[C@H]3[C@H](O)[C@@H](N)C[C@@H](N)[C@@H]3O[C@H]3O[C@H](CN)[C@@H](O)[C@H](O)[C@H]3N)[C@H](O)[C@@H]2O[C@@H]2OC(CN)[C@H](O)[C@@H](O)[C@@H]2N)[C@H](N)[C@@H](O)[C@@H]1O (some centres undefined)
350 nM | NC[C@@H]1O[C@H](O[C@H]2[C@@H](O)[C@H](O[C@@H]3[C@@H](O)[C@H](N)C[C@H](N)[C@H]3O[C@H]3O[C@H](CN)[C@@H](O)[C@H](O)[C@H]3N)O[C@@H]2CO)[C@H](N)[C@@H](O)[C@@H]1O [FRAMYCETIN]
10 nM | NC[C@@H]1O[C@H](O[C@@H]2[C@H](O[C@@H]3OC(CSCCOCCSCC(O)CN4C(=O)c5ccc6c7c(ccc(c57)C4=O)C(=O)N(CC(O)CSCCOCCSC[C@H]4O[C@@H](O[C@H]5[C@H](O)[C@@H](N)C[C@@H](N)[C@@H]5O[C@H]5O[C@H](CN)[C@@H](O)[C@H](O)[C@H]5N)[C@H](O)[C@@H]4O[C@H]4O[C@@H](CN)[C@@H](O)[C@H](O)[C@H]4N)C6=O)[C@@H](O[C@@H]4O[C@H](CN)[C@H](O)C(O)[C@H]4N)[C@H]3O)[C@@H](O)[C@@H](N)C[C@@H]2N)[C@@H](N)[C@@H](O)[C@@H]1O (some centres undefined)
150 nM | NC[C@@H]1O[C@H](O[C@H]2[C@@H](O)[C@H](O[C@H]3[C@H](O)[C@@H](N)C[C@@H](N)[C@@H]3O[C@H]3O[C@H](CN)[C@@H](O)[C@H](O)[C@H]3N)O[C@@H]2CSCCOCCSCC(O)CN2C(=O)c3ccc4c5c(ccc(c35)C2=O)C(=O)N(CC(O)CSCCOCCSC[C@H]2O[C@H](O[C@@H]3[C@@H](O)[C@H](O[C@H]5O[C@H](CN)[C@@H](O)C[C@H]5N)[C@@H](N)C[C@H]3N)[C@H](O)[C@@H](N)[C@@H]2O)C4=O)[C@H](N)[C@@H](O)[C@@H]1O (some centres undefined)
1110 nM | NC[C@H]1O[C@H](O[C@H]2[C@H](O)[C@@H](O[C@H]3O[C@H](CSCCOCCSCC(O)CN4C(=O)c5ccc6c7c(ccc(c57)C4=O)C(=O)N(CC(O)CSCCOCCSC[C@H]4O[C@H](O[C@@H]5[C@@H](O)[C@H](O[C@H]7O[C@H](CN)[C@@H](O)C[C@H]7N)[C@@H](N)C[C@H]5N)[C@H](O)[C@@H](N)[C@@H]4O)C6=O)[C@@H](O)[C@H](N)[C@H]3O)[C@H](N)C[C@@H]2N)[C@H](N)C[C@@H]1O (some centres undefined)
